Experimental data as given in patent publication US10351546B2, “Pyridin-3-yl acetic acid derivatives as inhibitors of human immunodeficiency virus replication” (priority 2015, dated 2019).

What follows are compounds tested on NL-RLuc virus (assay: Inhibition of HIV replication (NL-RLuc luciferase reporter virus in MT-2 cells)). Settings: Human immunodeficiency virus 1, MT2, 120 h, read-out: Activity.
Type: cell-based
Description: Inhibition of HIV replication: A recombinant NL-RLuc proviral clone was constructed in which a section of the nef gene form NL4-3 was replaced with the Renilla Luciferase gene. This virus is fully infectious and can undergo multiple cycles of replication in cell culture. In addition, the luciferous reporter provides a simple and easy method for quantitating the extent of virus growth and consequently, the antiviral activity of test compounds. The plasmid pNLRLuc contains the proviral NL-Rluc DNA cloned into pUC18 at the PvuII site. The NL-RLuc virus was prepared by transfection of 293T cells with the plasmid pNLRLuc. Transfections were performed using the LipofectAMINE PLUS kit form Invitrogen (Carlsbad, Calif.) according to the manufacturer and the virus generated was titered in MT-2 cells. For susceptibility analyses, the titrated virus was used to infect MT-2 cells in the presence of compound, and after 5 days of incubation, cells were processed and quantitated for virus growth by the amount of expressed luciferase. Assay media was RPMI 1640 supplemented with 10% heat inactivated fetal bovine serum (FBS), 100 units/ml penicillin G/100 units/ml streptomycin, 10 mM HEPES buffer pH 7.55 and 2 mM L-glutamine. The results form at least 2 experiments were used to calculate the EC50 values. Luciferase was quantitated using the Dual Luciferase kit form Promega (Madison, Wis.). Susceptibility of viruses to compounds was determined by incubation in the presence of serial dilutions of the compound. The 50% effective concentration (EC50) was calculated by using the exponential form of the median effect equation where (Fa)=1/[1+(ED50/drug conc.)^m](Johnson V A, Byington R T. Infectivity Assay. In Techniques in HIV Research. ed. Aldovini A, Walker B D. 71-76. New York: Stockton Press. 1990). Activity equal to A refers to a compound having an EC50≤100 nM, while B and C denote compounds having an EC50 between 100 nM and 1 uM (B) or >1 uM (C).
`CCOCCOCc1nc(C)c([C@H](OC(C)(C)C)C(=O)O)c(N2CCC(C)(C)CC2)c1Br` [Example 37, (S)-2-(5-bromo-4-(4,4-dimethylpiperidin-1-yl)-6-((2-ethoxyethoxy)methyl)-2-methylpyridin-3-yl)-2-(tert-butoxy)acetic acid] was tested, and the EC50 was < 0.1 µM. `Cc1nc(C(=O)O)c(-c2ccc(OCCc3ccc(F)cc3)cc2)c(N2CCC(C)(C)CC2)c1[C@H](OC(C)(C)C)C(=O)O` [Example 38, (S)-5-(tert-Butoxy(carboxy)methyl)-4-(4,4-dimethylpiperidin-1-yl)-3-(4-(4-fluorophenethoxy)phenyl)-6-methylpicolinic acid] showed an EC50 of 0.1 to 1 µM. `COCCNC(=O)c1nc(C)c([C@H](OC(C)(C)C)C(=O)O)c(N2CCC(C)(C)CC2)c1-c1ccc(OCCc2ccc(F)cc2)cc1` [Example 39, (S)-2-(tert-Butoxy)-2-(4-(4,4-dimethylpiperidin-1-yl)-5-(4-(4-fluorophenethoxy)phenyl)-6-((2-methoxyethyl)carbamoyl)-2-methylpyridin-3-yl)acetic acid] was tested, and the EC50 was < 0.1 µM. `CNC(=O)c1nc(C)c([C@H](OC(C)(C)C)C(=O)O)c(N2CCC(C)(C)CC2)c1-c1ccc(OCCc2ccc(F)cc2)cc1` [Example 40, (S)-2-(tert-Butoxy)-2-(4-(4,4-dimethylpiperidin-1-yl)-5-(4-(4-fluorophenethoxy)phenyl)-2-methyl-6-(methylcarbamoyl)pyridin-3-yl)acetic acid] was tested, and the EC50 was < 0.1 µM. With `Cc1nc(C(=O)N(C)CC2CCOCC2)c(-c2ccc(OCCc3ccc(F)cc3)cc2)c(N2CCC(C)(C)CC2)c1[C@H](OC(C)(C)C)C(=O)O` [Example 41, (S)-2-(tert-Butoxy)-2-(4-(4,4-dimethylpiperidin-1-yl)-5-(4-(4-fluorophenethoxy)phenyl)-2-methyl-6-(methyl((tetrahydro-2H-pyran-4-yl)methyl)carbamoyl)pyridin-3-yl)acetic acid] the EC50 was < 0.1 µM. In the case of `Cc1nc(C(=O)N(C)CC2CCCCC2)c(-c2ccc(OCCc3ccc(F)cc3)cc2)c(N2CCC(C)(C)CC2)c1[C@H](OC(C)(C)C)C(=O)O` [Example 42, (S)-2-(tert-Butoxy)-2-(6-((cyclohexylmethyl)(methyl)carbamoyl)-4-(4,4-dimethylpiperidin-1-yl)-5-(4-(4-fluorophenethoxy)phenyl)-2-methylpyridin-3-yl)acetic acid], the EC50 is reported as < 0.1 µM. For `CCCCN(C)C(=O)c1nc(C)c([C@H](OC(C)(C)C)C(=O)O)c(N2CCC(C)(C)CC2)c1-c1ccc(OCCc2ccc(F)cc2)cc1` [Example 43, (S)-2-(tert-Butoxy)-2-(6-(butyl(methyl)carbamoyl)-4-(4,4-dimethylpiperidin-1-yl)-5-(4-(4-fluorophenethoxy)phenyl)-2-methylpyridin-3-yl)acetic acid], the EC50 was < 0.1 µM. With `Cc1nc(-c2nc3ccc(Cl)cc3[nH]2)c(-c2ccc(OCCc3ccc(F)cc3)cc2)c(N2CCC(C)(C)CC2)c1[C@H](OC(C)(C)C)C(=O)O` [Example 44, (S)-2-(tert-Butoxy)-2-(6-(6-chloro-1H-benzo[d]imidazol-2-yl)-4-(4,4-dimethylpiperidin-1-yl)-5-(4-(4-fluorophenethoxy)phenyl)-2-methylpyridin-3-yl)acetic acid] the EC50 was < 0.1 µM. In the case of `Cc1nc(-c2ncc(Cc3ccc(F)cc3)o2)c(-c2ccc(OCCc3ccc(F)cc3)cc2)c(N2CCC(C)(C)CC2)c1[C@H](OC(C)(C)C)C(=O)O` [Example 45, (S)-2-(tert-Butoxy)-2-(4-(4,4-dimethylpiperidin-1-yl)-6-(5-(4-fluorobenzyl)oxazol-2-yl)-5-(4-(4-fluorophenethoxy)phenyl)-2-methylpyridin-3-yl)acetic acid], the EC50 is reported as < 0.1 µM. For `Cc1nc(N)c(-c2ccc(OCCc3ccc(F)cc3)cc2)c(N2CCC(C)(C)CC2)c1[C@H](OC(C)(C)C)C(=O)O` [Example 46, (S)-2-(6-Amino-4-(4,4-dimethylpiperidin-1-yl)-5-(4-(4-fluorophenethoxy)phenyl)-2-methylpyridin-3-yl)-2-(tert-butoxy)acetic acid], the EC50 was < 0.1 µM. `CC(=O)Nc1nc(C)c([C@H](OC(C)(C)C)C(=O)O)c(N2CCC(C)(C)CC2)c1-c1ccc(OCCc2ccc(F)cc2)cc1` [Example 47, (S)-2-(6-Acetamido-4-(4,4-dimethylpiperidin-1-yl)-5-(4-(4-fluorophenethoxy)phenyl)-2-methylpyridin-3-yl)-2-(tert-butoxy)acetic acid] was tested, and the EC50 was < 0.1 µM. For `Cc1nc(NS(C)(=O)=O)c(-c2ccc(OCCc3ccc(F)cc3)cc2)c(N2CCC(C)(C)CC2)c1[C@H](OC(C)(C)C)C(=O)O` [Example 48, (S)-2-(tert-Butoxy)-2-(4-(4,4-dimethylpiperidin-1-yl)-5-(4-(4-fluorophenethoxy)phenyl)-2-methyl-6-(methylsulfonamido)pyridin-3-yl)acetic acid], the EC50 was < 0.1 µM. `CNc1nc(C)c([C@H](OC(C)(C)C)C(=O)O)c(N2CCC(C)(C)CC2)c1-c1ccc(OCCc2ccc(F)cc2)cc1` [Example 49, (S)-2-(tert-Butoxy)-2-(4-(4,4-dimethylpiperidin-1-yl)-5-(4-(4-fluorophenethoxy)phenyl)-2-methyl-6-(methylamino)pyridin-3-yl)acetic acid] was tested, and the EC50 was < 0.1 µM. With `Cc1nc(N2CCCCC2)c(-c2ccc(OCCc3ccc(F)cc3)cc2)c(N2CCC(C)(C)CC2)c1[C@H](OC(C)(C)C)C(=O)O` [Example 53, (S)-2-(tert-Butoxy)-2-(4-(4,4-dimethylpiperidin-1-yl)-5-(4-(4-fluorophenethoxy)phenyl)-2-methyl-6-(piperidin-1-yl)pyridin-3-yl)acetic acid] the EC50 was < 0.1 µM. For `Cc1nc(/C=C/COC(C)C)c(-c2ccc(OCCc3ccc(F)cc3)cc2)c(N2CCC(C)(C)CC2)c1[C@H](OC(C)(C)C)C(=O)O` [Example 54, (S,E)-2-(tert-Butoxy)-2-(4-(4,4-dimethylpiperidin-1-yl)-5-(4-(4-fluorophenethoxy)phenyl)-6-(3-isopropoxyprop-1-en-1-yl)-2-methylpyridin-3-yl)acetic acid], the EC50 was < 0.1 µM. With `Cc1nc(/C=C\COC(C)C)c(-c2ccc(OCCc3ccc(F)cc3)cc2)c(N2CCC(C)(C)CC2)c1[C@H](OC(C)(C)C)C(=O)O` [Example 55, (S,Z)-2-(tert-Butoxy)-2-(4-(4,4-dimethylpiperidin-1-yl)-5-(4-(4-fluorophenethoxy)phenyl)-6-(3-isopropoxyprop-1-en-1-yl)-2-methylpyridin-3-yl)acetic acid] the EC50 was < 0.1 µM. `Cc1nc(CCCOC(C)C)c(-c2ccc(OCCc3ccc(F)cc3)cc2)c(N2CCC(C)(C)CC2)c1[C@H](OC(C)(C)C)C(=O)O` [Example 56, (S)-2-(tert-Butoxy)-2-(4-(4,4-dimethylpiperidin-1-yl)-5-(4-(4-fluorophenethoxy)phenyl)-6-(3-isopropoxypropyl)-2-methylpyridin-3-yl)acetic acid] was tested, and the EC50 was < 0.1 µM. For `CO/C=C/c1nc(C)c([C@H](OC(C)(C)C)C(=O)O)c(N2CCC(C)(C)CC2)c1-c1ccc(OCCc2ccc(F)cc2)cc1` [Example 57, (S,E)-2-(tert-Butoxy)-2-(4-(4,4-dimethylpiperidin-1-yl)-5-(4-(4-fluorophenethoxy)phenyl)-6-(2-methoxyvinyl)-2-methylpyridin-3-yl)acetic acid], the EC50 was < 0.1 µM. `COCCc1nc(C)c([C@H](OC(C)(C)C)C(=O)O)c(N2CCC(C)(C)CC2)c1-c1ccc(OCCc2ccc(F)cc2)cc1` [Example 58, (S)-2-(tert-butoxy)-2-(4-(4,4-dimethylpiperidin-1-yl)-5-(4-(4-fluorophenethoxy)phenyl)-6-(2-methoxyethyl)-2-methylpyridin-3-yl)acetic acid] was tested, and the EC50 was < 0.1 µM. For `Cc1nc(CCCN(C)C)c(-c2ccc(OCCc3ccc(F)cc3)cc2)c(N2CCC(C)(C)CC2)c1[C@H](OC(C)(C)C)C(=O)O` [Example 59, (S)-2-(tert-Butoxy)-2-(6-(3-(dimethylamino)propyl)-4-(4,4-dimethylpiperidin-1-yl)-5-(4-(4-fluorophenethoxy)phenyl)-2-methylpyridin-3-yl)acetic acid], the EC50 was < 0.1 µM. In the case of `COc1ccc(Cc2nc(C)c([C@H](OC(C)(C)C)C(=O)O)c(N3CCC(C)(C)CC3)c2-c2ccc(OCCc3ccc(F)cc3)cc2)cc1` [Example 60, (S)-2-(tert-Butoxy)-2-(4-(4,4-dimethylpiperidin-1-yl)-5-(4-(4-fluorophenethoxy)phenyl)-6-(4-methoxybenzyl)-2-methylpyridin-3-yl)acetic acid], the EC50 is reported as < 0.1 µM. With `C=Cc1nc(C)c([C@H](OC(C)(C)C)C(=O)O)c(N2CCC(C)(C)CC2)c1-c1ccc(OCCc2ccc(F)cc2)cc1` [Example 61, (S)-2-(tert-Butoxy)-2-(4-(4,4-dimethylpiperidin-1-yl)-5-(4-(4-fluorophenethoxy)phenyl)-2-methyl-6-vinylpyridin-3-yl)acetic acid] the EC50 was < 0.1 µM. In the case of `Cc1ncc(Br)c(N2CCC(C)(C)CC2)c1[C@H](OC(C)(C)C)C(=O)O` [Example 62, (S)-2-(5-Bromo-4-(4,4-dimethylpiperidin-1-yl)-2-methylpyridin-3-yl)-2-(tert-butoxy)acetic acid], the EC50 is reported as < 0.1 µM.

Same assay, conditions: Human immunodeficiency virus 1, MT2, 120 h, read-out: EC50 μM
For `Cc1nc(C(=O)N(C)CC2CCCCC2)c(-c2ccc(OCCc3ccc(F)cc3)cc2)c(N2CCC(C)(C)CC2)c1[C@H](OC(C)(C)C)C(=O)O` [Example 42, (S)-2-(tert-Butoxy)-2-(6-((cyclohexylmethyl)(methyl)carbamoyl)-4-(4,4-dimethylpiperidin-1-yl)-5-(4-(4-fluorophenethoxy)phenyl)-2-methylpyridin-3-yl)acetic acid], the EC50 was 0.004 µM. `CNc1nc(C)c([C@H](OC(C)(C)C)C(=O)O)c(N2CCC(C)(C)CC2)c1-c1ccc(OCCc2ccc(F)cc2)cc1` [Example 49, (S)-2-(tert-Butoxy)-2-(4-(4,4-dimethylpiperidin-1-yl)-5-(4-(4-fluorophenethoxy)phenyl)-2-methyl-6-(methylamino)pyridin-3-yl)acetic acid] showed an EC50 of 0.001 µM. Compound `CO/C=C/c1nc(C)c([C@H](OC(C)(C)C)C(=O)O)c(N2CCC(C)(C)CC2)c1-c1ccc(OCCc2ccc(F)cc2)cc1` [Example 57, (S,E)-2-(tert-Butoxy)-2-(4-(4,4-dimethylpiperidin-1-yl)-5-(4-(4-fluorophenethoxy)phenyl)-6-(2-methoxyvinyl)-2-methylpyridin-3-yl)acetic acid] has an EC50 of 0.012 µM.
